# Assay results: US20250268873A1, “COMBINATION OF DUAL ATM AND DNA-PK INHIBITORS AND IMMUNOTHERAPEUTIC AGENTS FOR USE IN CANCER THERAPY” (XRAD THERAPEUTICS, INC., priority 2021, published 2025)
# Columns and labels:
# hERG channel = hERG channel (Homo sapiens (Human), UniProt Q12809); assay: In-Vitro hERG Inhibition Assay (manual patch clamp); type: cell-based; settings: hERG-T-REx HEK 293 cells
# Procedure: The hERG-T-REx™ HEK 293 cells (Invitrogen, K1236) were generated by transfecting the hERG coding sequence in the Tet-regulated expression vector pT-Rex-DEST30 into cells expressing the Tet-repressor (T-Rex™ HEK293), thereby producing cells that can be induced to express high level of hERG channels. The cells were cultured in a medium containing of 85% DMEM, 10% dialyzed FBS, 0.1 mM NEAA, 25 mM HEPES, 100 U/mL Penicillin-Streptomycin, 5 μg/mL Blasticidin, and 400 μg/mL Geneticin. The cells were split using TrypLE™ Express (Gibco, 12604) about three times a week and maintained between ˜40% to ˜80% confluence. Before the assay, the cells were induced with doxycycline (Sigma, D9891) at 1 μg/mL for 48 hours. On the experiment day, the induced cells were resuspended and plated onto the coverslips at 5×10^5 cells/per 6 cm cell culture dish prior to use. The hERG channel-mediated current was acquired by manual patch clamp recording systems equipped with amplifiers (HEKA, EPC10 and Molecular Devices, multiclamp 700B) and the inverted phase contrast microscope (Olympus, IX51/71/73). Glass pipettes were prepared by micropipette puller (Sutter, P97 and Narishige, PC-10) and qualified by the pipette resistance in the range of 2-4 MOhms. […] The whole-cell configuration was maintained with access resistance continuously monitored (<15 MOhms). […]
# DNA-PK and ATM kinases = assay: Immunoblot of radiation-induced phosphorylation in MCF7 cells; type: cell-based, human; settings: 20, 100, 500, 1000 nM, 30 min pre-treatment, 10 Gy IR
# Excerpt: Antibodies recognizing phosphorylated/activated ATM (S1981, #ab81292) and DNA-PKcs (S2056, #ab18192) were purchased from Abcam Biotechnology (Cambridge, MA). Antibodies to ATM (#A1106) and DNA-PKcs (#ab1832) were from Sigma and Abcam, respectively. Phospho-KAP1 (S824, #A300-767A) and KAP1 (A700-014) antibodies were from Bethyl Labs (Montgomery, TX). Phospho-TBK1 (#5483), cGAS (#15102), and pSTING (S366, #19781S) antibodies were from Cell Signaling Technology (CST) (Danvers, MA). STING (PA5-23381) antibodies were from ThermoFisher Scientific (Waltham, MA), and actin (#A5316) antibodies were from Sigma. […]
# Cells were pretreated with Compound 569 at 20, 100, 500, or 1000 nM or DMSO for 30 min and then irradiated with 0 or 10 Gy (XRAD 160, Precision X Ray) as shown in FIG. 1. […] One hour after IR, cells were lysed in RIPA buffer ([…], pH 8.0, 150 mM NaCl, 0.1% SDS, 0.5% sodium deoxycholate, 1% IGEPAL® CA-630 (Sigma, 18896) for 20 min at 4° C. in the presence of protease and phosphatase inhibitor cocktails (Roche, #04693159001 & #04906837001). Cell lysates were centrifuged at 13,200 g for 10 min at 4° C. and supernatants were analyzed for protein content using BCA assay (Pierce™ BCA Protein Assay Kit, cat #23227, ThermoFisher Waltham, MA 02451) and equal amounts of protein/lane were used for subsequent immunoblot analyses. Proteins were denatured by adding NuPAGE LSD Sample Buffer [4×] […]
# Chain of hERG channel (Q12809 whole entry): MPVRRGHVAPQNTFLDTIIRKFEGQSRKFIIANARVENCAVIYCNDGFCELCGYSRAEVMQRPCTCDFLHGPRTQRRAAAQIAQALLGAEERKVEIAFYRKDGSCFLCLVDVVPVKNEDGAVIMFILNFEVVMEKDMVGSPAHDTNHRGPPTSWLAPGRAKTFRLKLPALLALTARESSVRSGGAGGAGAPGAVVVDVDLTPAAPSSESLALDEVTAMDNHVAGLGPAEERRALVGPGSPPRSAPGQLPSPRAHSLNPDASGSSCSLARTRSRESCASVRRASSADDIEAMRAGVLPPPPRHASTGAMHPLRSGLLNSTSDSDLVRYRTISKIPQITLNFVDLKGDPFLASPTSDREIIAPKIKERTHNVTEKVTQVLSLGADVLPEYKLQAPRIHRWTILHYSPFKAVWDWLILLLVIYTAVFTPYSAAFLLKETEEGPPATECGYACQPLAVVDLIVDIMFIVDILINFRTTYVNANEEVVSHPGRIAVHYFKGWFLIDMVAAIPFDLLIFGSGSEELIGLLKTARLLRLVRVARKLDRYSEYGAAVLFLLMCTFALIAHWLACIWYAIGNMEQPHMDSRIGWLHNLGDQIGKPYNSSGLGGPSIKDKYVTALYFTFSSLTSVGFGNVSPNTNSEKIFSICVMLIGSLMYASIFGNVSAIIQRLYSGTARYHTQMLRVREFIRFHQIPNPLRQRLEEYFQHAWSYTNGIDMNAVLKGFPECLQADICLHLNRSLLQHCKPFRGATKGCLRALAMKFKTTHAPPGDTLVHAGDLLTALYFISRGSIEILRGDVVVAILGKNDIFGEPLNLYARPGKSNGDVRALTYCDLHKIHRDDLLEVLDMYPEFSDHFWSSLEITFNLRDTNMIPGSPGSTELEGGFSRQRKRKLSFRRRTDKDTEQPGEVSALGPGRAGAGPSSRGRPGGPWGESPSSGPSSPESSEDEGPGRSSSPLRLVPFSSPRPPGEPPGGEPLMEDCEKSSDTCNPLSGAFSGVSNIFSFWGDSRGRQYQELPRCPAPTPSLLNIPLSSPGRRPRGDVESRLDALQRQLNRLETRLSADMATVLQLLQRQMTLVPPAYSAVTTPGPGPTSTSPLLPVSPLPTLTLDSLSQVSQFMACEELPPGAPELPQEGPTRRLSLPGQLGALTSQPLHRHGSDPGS
structure (smiles),measurement,setting,value
"CC(C)NCCOc1ncc(-c2cc3c4c(cnc3cc2F)N(C)C(=O)C42CCC2)cc1NS(C)(=O)=O [Compound 569, N-(5-(7′-Fluoro-3′-methyl-2′-oxo-2′,3′-dihydrospiro[cyclobutane-1,1′-pyrrolo[2,3-c]quinolin]-8′-yl)-2-(2-(isopropylamino)ethoxy)pyridin-3-yl)methanesulfonamide]",IC50,hERG channel,> 30 µM
same,"inhibition of radiation-induced phosphorylation of DNA-PKcs (Ser2056), ATM (Ser1981) and KAP1 (ser824)",DNA-PK and ATM kinases,potent dose-dependent inhibition
